In PMC11844072, “Novel 5,6-dichlorobenzimidazole derivatives as dual BRAFWT and BRAFV600E inhibitors: design, synthesis, anti-cancer activity and molecular dynamics simulations” (BMC Chemistry, 2025):

Legend:
[1] = test system: HT29 cell line; assay: Apoptosis assay (Annexin V-FITC/PI); type: cell-based, human
Protocol: As stated in the Additional file A, the populations of apoptotic and necrotic cells of HT29 cell line were detected after treatment with 10h employing Annexin V-FITC apoptosis detection kit (For further details see Additional file A). […]
HT29: Colon Cancer was obtained from Nawah Scientific Inc., (Mokatam, Cairo, Egypt). […]
Apoptosis and necrosis cell populations are determined using Annexin V-FITC apoptosis detection kit (Abcam Inc., Cambridge Science Park, Cambridge, UK) coupled with 2 fluorescent channels flowcytometry. After treatment with test compounds for 48h, cells (10^5 cells) are collected by trypsinization and washed twice with ice-cold PBS (pH 7.4). Then, cells are incubated in dark with 0.5 ml of Annexin V-FITC/PI solution for 30 min in dark at room temperature according to manufacturer protocol. After staining, cells are injected via ACEA Novocyte™ flowcytometer (ACEA Biosciences Inc., San Diego, CA, USA) and analysed for FITC and PI fluorescent signals using FL1 and FL2 signal detector, respectively (λex/em 488/530 nm for FITC and λex/em 535/617 nm for PI). For each sample, 12,000 events are acquired and positive FITC and/or PI cells are quantified by quadrant analysis and calculated using ACEA NovoExpress™ software (ACEA Biosciences Inc., San Diego, CA,

[2] = test system: HT29 cell line; assay: Cell cycle analysis (PI flow cytometry); type: cell-based, human
Protocol: 7. Analysis of cell cycle distribution
HT29: Colon Cancer was obtained from Nawah Scientific Inc., (Mokatam, Cairo, Egypt). Cells were maintained in DMEM media supplemented with […] of streptomycin, 100 units/mL of penicillin and 10% of heat-inactivated fetal bovine serum in humidified, 5% (v/v) CO 2 atmosphere at 37 °C. After treatment with test compound 8m for 48h, cells (10^5 cells) are collected by trypsinization and washed twice with ice-cold PBS (pH 7.4). Cells are re-suspended in two milliliters of 60% ice-cold ethanol and incubated at 4 °C for 1h for fixation. Fixed cells are washed twice again with PBS (pH 7.4) and re-suspended in 1 mL of PBS containing 50 μg/mL RNAase A and 10 μg/mL propidium iodide (PI). After 20 min of incubation in dark at 37 °C, cells are analyzed for DNA contents using flow cytometry analysis using FL2 (λex/em 535/617 nm) signal detector (ACEA Novocyte™ flowcytometer, ACEA Biosciences Inc., San Diego, CA, USA). For each sample, 12,000 events are acquired. Cell cycle distribution is calculated using ACEA NovoExpress™ software (ACEA Biosciences Inc., San Diego, CA, USA). […]

[3] = molecular target: VEGFR-2 (Homo sapiens, UniProt P35968); assay: VEGFR-2 kinase assay (Kinase-Glo Max luminescence)
Chain of VEGFR-2 (P35968 20-1356): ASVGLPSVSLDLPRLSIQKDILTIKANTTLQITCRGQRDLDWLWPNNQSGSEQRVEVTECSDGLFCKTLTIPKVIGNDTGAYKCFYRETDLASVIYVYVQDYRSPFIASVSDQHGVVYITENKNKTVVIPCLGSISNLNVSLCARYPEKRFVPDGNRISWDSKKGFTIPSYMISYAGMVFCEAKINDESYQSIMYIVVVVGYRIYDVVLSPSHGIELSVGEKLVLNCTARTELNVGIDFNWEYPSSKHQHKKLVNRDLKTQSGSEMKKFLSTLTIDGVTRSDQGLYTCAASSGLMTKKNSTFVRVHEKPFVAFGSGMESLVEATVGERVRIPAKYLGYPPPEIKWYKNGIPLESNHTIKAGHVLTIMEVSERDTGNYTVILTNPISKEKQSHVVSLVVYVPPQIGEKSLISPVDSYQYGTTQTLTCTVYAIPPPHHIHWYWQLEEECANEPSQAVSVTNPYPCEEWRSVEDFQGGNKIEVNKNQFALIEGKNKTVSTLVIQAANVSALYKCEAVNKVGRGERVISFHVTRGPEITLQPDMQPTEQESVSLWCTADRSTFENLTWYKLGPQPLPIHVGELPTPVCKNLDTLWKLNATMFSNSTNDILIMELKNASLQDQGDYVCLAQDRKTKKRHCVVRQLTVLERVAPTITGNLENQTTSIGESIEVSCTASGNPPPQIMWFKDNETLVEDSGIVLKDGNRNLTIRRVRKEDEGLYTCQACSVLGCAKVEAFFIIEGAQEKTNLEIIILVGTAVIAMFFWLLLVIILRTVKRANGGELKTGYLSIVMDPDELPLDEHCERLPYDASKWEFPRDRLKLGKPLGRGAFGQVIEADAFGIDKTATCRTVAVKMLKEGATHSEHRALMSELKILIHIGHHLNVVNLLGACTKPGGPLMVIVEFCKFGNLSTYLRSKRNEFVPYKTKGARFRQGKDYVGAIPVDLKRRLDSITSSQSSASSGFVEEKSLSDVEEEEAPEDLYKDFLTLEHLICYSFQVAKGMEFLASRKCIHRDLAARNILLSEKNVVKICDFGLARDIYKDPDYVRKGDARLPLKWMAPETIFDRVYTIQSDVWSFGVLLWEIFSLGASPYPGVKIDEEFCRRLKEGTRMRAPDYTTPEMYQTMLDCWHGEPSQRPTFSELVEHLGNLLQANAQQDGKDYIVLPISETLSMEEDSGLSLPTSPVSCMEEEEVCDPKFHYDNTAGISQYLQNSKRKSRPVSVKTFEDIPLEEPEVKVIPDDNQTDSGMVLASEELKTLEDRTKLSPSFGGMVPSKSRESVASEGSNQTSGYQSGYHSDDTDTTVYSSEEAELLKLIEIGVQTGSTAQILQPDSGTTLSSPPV
Protocol: (§1) The inhibitory activity against different kinases was determined using kinase kits (BRAF WT
(§2) Glo Max luminescence kinase assay kit (Promega).
(§3) The assay was carried out according to the protocol provided by the manufacturer. A stock solution of the synthesized derivatives in 100% DMSO was prepared. Subsequently, the compounds were diluted to 10% DMSO.
(§4) A master mixture was prepared according to the number of wells. For BRAF assay each well include 6 μl of 5x Kinase Buffer 1 + 1 μl of ATP (500 μM) + 10 μl of 5X Raf substrate + 8 μl of distilled water. 1x Kinase buffer 1 was prepared by mixing 600 μl of 5x Kinase Buffer 1 with 2400 μl water to give 3 mL. Kinases were thawed on ice and were diluted with 1x Kinase Buffer 1. […]
(§5) The plate was incubated at 30 °C for 45 min. Subsequently, 50 μl of Kinase-Glo Max luminescence reagent was added to each well and the plate was covered with aluminum foil and incubated at room temperature for 15 min. Finally, the luminescence was recorded using multimode microplate reader. […]
(§6) The luminescence data were analyzed as follows. The difference between luminescence intensities in the absence of kinase (Lu t) and in the presence of kinase (Lu c) was defined as 100 %
(§7) calculated as: % activity = {(Lu t - Lu)/(Lut - Luc)} ×100%. The concentration of the test compounds required to reduce the kinase activity by 50% was determined from dose-response curves and

[4] = molecular target: FGFR-1 (Homo sapiens, UniProt P11362); assay: FGFR-1 kinase assay (Kinase-Glo Max luminescence)
Chain of FGFR-1 (P11362 22-822): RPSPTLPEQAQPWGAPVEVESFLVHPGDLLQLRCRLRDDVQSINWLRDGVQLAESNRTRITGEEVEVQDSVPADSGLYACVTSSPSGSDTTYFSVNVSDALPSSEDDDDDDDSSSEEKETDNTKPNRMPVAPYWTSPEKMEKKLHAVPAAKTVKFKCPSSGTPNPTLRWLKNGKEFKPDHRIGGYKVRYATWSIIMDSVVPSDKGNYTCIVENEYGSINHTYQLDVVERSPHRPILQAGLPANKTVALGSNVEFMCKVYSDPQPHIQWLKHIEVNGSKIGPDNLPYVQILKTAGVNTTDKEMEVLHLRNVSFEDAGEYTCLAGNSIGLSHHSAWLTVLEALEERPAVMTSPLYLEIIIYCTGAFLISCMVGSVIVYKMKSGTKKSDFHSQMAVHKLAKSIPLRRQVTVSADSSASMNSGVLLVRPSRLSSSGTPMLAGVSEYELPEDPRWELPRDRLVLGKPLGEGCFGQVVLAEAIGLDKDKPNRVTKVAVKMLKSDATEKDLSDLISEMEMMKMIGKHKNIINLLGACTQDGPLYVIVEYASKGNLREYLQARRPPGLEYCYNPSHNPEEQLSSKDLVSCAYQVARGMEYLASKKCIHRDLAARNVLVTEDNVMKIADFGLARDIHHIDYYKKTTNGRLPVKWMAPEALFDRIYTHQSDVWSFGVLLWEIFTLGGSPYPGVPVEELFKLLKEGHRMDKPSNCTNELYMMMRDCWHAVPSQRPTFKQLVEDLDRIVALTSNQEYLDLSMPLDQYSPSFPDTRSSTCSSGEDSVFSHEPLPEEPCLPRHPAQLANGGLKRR
Protocol: as §1, §2, §3, §4, §5, §6, §7

[5] = molecular target: BRAFV600E (Homo sapiens, UniProt P15056, V600E); assay: BRAFV600E kinase assay kit (Kinase-Glo Max luminescence)
Chain of BRAFV600E (P15056 whole entry V600E): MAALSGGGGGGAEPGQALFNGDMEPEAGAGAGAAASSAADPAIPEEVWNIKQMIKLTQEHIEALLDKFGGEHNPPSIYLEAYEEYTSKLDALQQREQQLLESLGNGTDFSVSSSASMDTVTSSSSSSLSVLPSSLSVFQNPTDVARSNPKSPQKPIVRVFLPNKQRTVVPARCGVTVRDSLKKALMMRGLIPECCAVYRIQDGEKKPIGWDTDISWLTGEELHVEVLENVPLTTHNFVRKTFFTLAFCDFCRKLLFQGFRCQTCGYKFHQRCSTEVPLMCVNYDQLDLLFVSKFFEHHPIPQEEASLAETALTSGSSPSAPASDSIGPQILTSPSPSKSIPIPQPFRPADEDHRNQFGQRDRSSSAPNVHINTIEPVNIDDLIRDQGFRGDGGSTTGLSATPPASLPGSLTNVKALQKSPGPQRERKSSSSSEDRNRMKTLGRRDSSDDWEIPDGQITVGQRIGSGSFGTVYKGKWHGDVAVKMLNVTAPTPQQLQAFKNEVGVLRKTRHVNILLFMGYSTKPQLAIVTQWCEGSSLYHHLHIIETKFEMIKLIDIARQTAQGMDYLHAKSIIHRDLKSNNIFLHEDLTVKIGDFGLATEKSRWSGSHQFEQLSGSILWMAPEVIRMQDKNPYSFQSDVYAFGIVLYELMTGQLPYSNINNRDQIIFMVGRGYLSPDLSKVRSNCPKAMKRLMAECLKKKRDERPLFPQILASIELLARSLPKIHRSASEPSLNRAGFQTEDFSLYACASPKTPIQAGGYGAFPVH
Protocol: as §1, §2, §3, §4, §5, §6, §7

[6] = HT29, at its GI50 concentration, 48h
[7] = HT29, 10h at its GI50 concentration, 48h

With `COC(=O)COc1ccc(C=NNC(=O)Cn2c(-c3ccc(OC)cc3)nc3cc(Cl)c(Cl)cc32)cc1` [Compound 10h, Methyl-2-(4-((2-(2-(5,6-dichloro-2-(4-methoxyphenyl)-1H-benzo[d]imidazol-1-yl)acetyl)hydrazono)methyl)phenoxy)acetate] the “% of cells in early apoptosis (Q2-4)” value [1, 6] was 2.29%, the “% of cells in late apoptosis (Q2-2)” value [1, 6] was 17.56% and the “% of necrotic cells (Q2-1)” value [1, 6] was 3.44%. For the same compound, the “% of viable cells (Q2-3)” value [1, 6] was 76.71%, the “total % of the cells in the apoptotic phases (Early and late)” value [1, 6] was 19.85% and the apoptosis induction ([1]; HT29 colon cancer cell line) was “induced apoptosis”. For the same compound, the “%G0/G1” value [2, 7] was 62.69%, the “%G2/M” value [2, 7] was 19.26% and the “%S” value [2, 7] was 18.04%. For the same compound, the “%Sub-G1” value [2, 7] was 10.45%, the “effect on cell cycle progression” value ([2]; HT29 colon cancer cell line) was “arrested cell cycle progression in HT29 colon cancer cell line at G2/M phase” and the IC50 [3] was 1520 ± 140 nM. The IC50 [4] was greater than 10000 nM and the IC50 [5] was 2760 ± 150 nM.
